Measurements published in patent US20050107289A1, “Anti-microbial peptides and compositions” (priority 2001, published 2005).
Non-standard residues stand in square brackets, D forms with d. Residues, ends and D or L forms follow the SMILES beside them.

Experiments:
E. faecium SP180 = experiment: Time-killing curve, E. faecium SP180; type: cell-based, Enterococcus faecium; conditions: for time to kill effectively all bacteria / killing of bacteria: about 2 μg/ml, BHI broth
Method: (§1) The speed at which several of the cyclic peptides of the invention kill E. coli JM 109 (DE3), Enterococcus faecium SP 180 and S. aureus (MRSA) (ATCC No. 33591 and 33592) was further tested at room temperature and/or at 37° C. A lower temperature tends to enrich the bacterial cultures for mature bacteria because the bacteria are not growing quickly. […] The presence or absence of immature bacteria in the culture may influence the rate at which the bacteria are killed, because immature bacteria tend to be more susceptible to many forms of antibiotics.
FIGS. 11 and 12 illustrate the time course for killing E. faecium SP 180 with varying concentrations of KSKWLWLW (SEQ ID NO:12), at room temperature and at 37° C. Assays were performed in Brain Heart Infusion broth. As illustrated, somewhat shorter times and/or somewhat lower concentrations of this cyclic peptide are required to kill E. faecium SP180 at 37° C. than at room temperature. E. faecium SP180 is vancomycin resistant (vanA) and multiply resistant to several FDA approved antibiotics. […] This may be due to growth of a few survivors after the residual cyclic peptide within the culture has been exhausted because the amount of peptide employed in that assay was below the MIC value.

[1] = test system: S. aureus (MRSA) (ATCC No. 33592); experiment: Time-killing curve, S. aureus MRSA ATCC 33592; type: cell-based, Staphylococcus aureus; conditions: about 4 μg/ml
Method: as §1
FIGS. 9 and 10 illustrate the time course for killing S. aureus (MRSA) (ATCC No. 33592) with varying concentrations of cyclo[KSKWLWLW] cyclic peptide (SEQ ID NO:12) at room temperature and at 37° C. […] This may be due to growth of a few survivors after the residual cyclic peptide within the culture has been exhausted because the amount of peptide employed in that assay was below the MIC value.

in vivo = conditions: for bioavailability / Vd / clearance / half-life: Balb/C, mouse, plasma; for bioavailability: intraperitoneal, 100 mg/kg; for Vd / clearance / half-life: iv; for Kel elimination rate constant: Mouse, IV injection
Method: IV injection: Solution of peptide in 9% sucrose (1 mg/mL) was injected IV into the tail vein of Balb/C mice at a dose of 3.6 mg/kg. Then the blood was collected immediately from one group of mice (3 mice per group) by bleeding the tail, separately from each mouse (50-100 uL per mouse). Further collections of blood were done from other groups of mice at times 20, 40, 70, 90, 120, 180, and 260 min after injection. Plasma from each blood sample was separated immediately after collection by spinning down red blood cells over a period of 5 min at 4000 rev./min. The plasma was then diluted with an equal volume of saline and refrigerated until analysis.
IP injection: Solutions of peptide in 9% sucrose (8.1 mg/mL) were injected EP into Balb/C mice at a dose of 100 mg/kg. Blood was collected immediately from one group of mice (3 mice per group) by bleeding the tail, separately from each mouse (50-100 uL per mouse). Further collections of blood were done from other groups of mice at times 0.5, 1, 2, 4, 6, 10, 15 h after injection. Plasma from each blood sample was separated immediately after collection by spinning down red blood cells over a period of 5 min at 4000 rev./min. Plasma was then diluted with equal volume of saline and refrigerated until analysis.
Detection of cyclo[RRKWLWW]-HCl in plasma by HPLC: Diluted with saline plasma (50-100 uL) was added to an eluent A (0.1% HCl in 99% H2O/1% ACN (v/v)) (150-300 uL), vortexed, and partial precipitation was removed by centrifugation. The clear solution was injected into an HPLC and the peptide was detected at 280 nm, in the 8-10 min interval, using a gradient of eluent A (0.1% HCl in 99% H2O/1% ACN (v/v)) and eluent B (0.07% HCl in 10% H2O/90% ACN (v/v)) using a flow rate of 1.5 ml/min. The following gradient was used: 30 to 30% B (5 min), followed by 30 to 37% B (5 min), followed by 37 to 40% B (12.5 min).
IV injection: Solution of peptide in 9% sucrose (2 mg/mL) was injected IV into the tail vein of Balb/C mice at a dose of 5 mg/kg. Blood was then collected immediately from one group of mice (3 mice per group) by bleeding the tail, separately from each mouse (50-100 uL per mouse). Further collections of blood were done from other groups of mice at times 30, 60, 120, 230, and 300 min after injection. Plasma from each blood sample was separated immediately after collection by spinning down red blood cells over a period of 5 min at 4000 rev./min. Plasma was then diluted with an equal volume of saline and refrigerated until analysis.
IP injection: Solution of peptide in 9% sucrose (9.8 mg/mL) was injected IP into Balb/C mice at a dose of 100 mg/kg. Blood was then collected immediately from one group of mice (3 mice per group) by bleeding the tail, separately from each mouse (50-100 uL per mouse). Further collections of blood were done from other groups of mice at times 0.5, 1, 2, 4, 6, 10 h after injection. Plasma from each blood sample was separated immediately after collection by spinning down red blood cells over a period of 5 min at 4000 rev./min. Plasma was then diluted with an equal volume of saline and refrigerated until analysis.
Detection of c(KSKWLWW) HC in plasma by HPLC: Samples were diluted with saline plasma (50-100 uL), added to an equal volume of eluent A (0.1% TFA in 96.5% H2O/0.9% ACN/2.4% MeOH (v/v)), vortexed, and partial precipitation was removed by centrifugation. The clear solution was injected into HPLC and the peptide was detected at 280 nm, in the 18-20 min interval, using a gradient of eluent A (0.1% TFA in 96.5% H2O/0.9% ACN/2.4% MeOH (v/v)) and eluent B (0.05% TFA in 8% H2O/72% ACN/20% MeOH (v/v)) using a flow rate of 1.5 ml/min. The following gradient was used: 0 to 0% B (5 min), followed by 0 to 100% B (25 min).

[2] = trypsin, α-chymotrypsin, subtilisin, blood plasma; RP-HPLC over 24 h
Method: Cyclic peptides having SEQ ID NO:13, 18, 26, and 29 were assayed for proteolytic susceptibility.

For CC(C)C[C@H]1NC(=O)[C@H](Cc2c[nH]c3ccccc23)NC(=O)[C@@H](CCCCN)NC(=O)[C@H](CO)NC(=O)[C@@H](CCCCN)NC(=O)[C@H](Cc2c[nH]c3ccccc23)NC(=O)[C@@H](CC(C)C)NC(=O)[C@H](Cc2c[nH]c3ccccc23)NC1=O [SEQ ID NO:12, D-Lys-Ser-D-Lys-Trp-D-Leu-Trp-D-Leu-Trp] (cyclo([dK]S[dK]W[dL]W[dL]W)), which “rebound in bacterial viability” value (E. faecium SP180; 1 μg/ml, 37° C.) is on record?
Its value is “rebound in bacterial viability”.

What about the “time after which effectively no cfu can be detected” value (E. faecium SP180; 1 μg/ml, 37° C.) of the same compound?
The value was 2 h.

And the surviving bacteria (E. faecium SP180; 1 μg/ml, room temperature)?
Its surviving bacteria is “viable bacteria can be detected throughout the entire time-course”.

What about the “time to kill effectively all bacteria” value (E. faecium SP180; 37° C.) of the same compound?
The value was “faster than an aliquot can be removed from the test culture”.

And the killing of bacteria (E. faecium SP180; room temperature)?
Its killing of bacteria is “discernible numbers of surviving bacteria can be detected immediately”.

What about the “rebound of bacterial population” value ([1]; 37° C.) of the same compound?
The value was “rebounds by about six hours”.

And the “time to kill effectively all bacteria” value ([1]; 37° C.)?
The value was “within about one hour”.

What about the “rebound of bacterial population” value ([1]; room temperature) of the same compound?
The value was “no rebound is observed”.

And the “time to kill all S. aureus (MRSA)” value ([1]; room temperature)?
Its value is at most 2 h.

And the bioavailability (in vivo)?
The bioavailability was 32%.

What about the Vd (in vivo) of the same compound?
Its Vd is 0.67 L/kg.

What about the clearance (in vivo) of the same compound?
The clearance was 0.3 mL/min.

What about the half-life (in vivo) of the same compound?
The half-life was 0.83 h.

And the “Kel elimination rate constant” value (in vivo)?
The value was 0.84 h⁻¹.

With CC(C)C[C@H]1NC(=O)[C@H](Cc2c[nH]c3ccccc23)NC(=O)[C@@H](CCCCN)NC(=O)[C@H](CCCNC(=N)N)NC(=O)[C@@H](CCCNC(=N)N)NC(=O)[C@H](Cc2c[nH]c3ccccc23)NC(=O)[C@@H](CC(C)C)NC(=O)[C@H](Cc2c[nH]c3ccccc23)NC1=O [SEQ ID NO:18, cyclo-(D-Arg-Arg-D-Lys-Trp-D-Leu-Trp-D-Leu-Trp)] (cyclo([dR]R[dK]W[dL]W[dL]W)) as the compound, how does the “time to kill effectively all bacteria” value (E. faecium SP180; 37° C.) read?
Its value is “within one hour”.

What about the killing of bacteria (E. faecium SP180; room temperature) of the same compound?
The killing of bacteria was “within one hour”.

And the “rebound of bacterial population” value ([1]; 37° C.)?
The value was “rebounds by about eight hours”.

What about the “time to kill effectively all bacteria” value ([1]; 37° C.) of the same compound?
Its value is “within about one hour”.

What about the “rebound of bacterial population” value ([1]; room temperature) of the same compound?
Its value is “no rebound is observed”.

What about the “time to kill all S. aureus (MRSA)” value ([1]; room temperature) of the same compound?
The value was at most 1 h.

What about the proteolytic stability [2] of the same compound?
The proteolytic stability was “stable”.

And the bioavailability (in vivo)?
The bioavailability was 9%.

And the Vd (in vivo)?
The Vd was 0.58 L/kg.

What about the clearance (in vivo) of the same compound?
The clearance was 0.16 mL/min.

And the half-life (in vivo)?
Its half-life is 1.2 h.

What about the “Kel elimination rate constant” value (in vivo) of the same compound?
Its value is 0.6 h⁻¹.
